Reference: US9487500B2, “Compounds and compositions thereof” (Inhibikase Therapeutics, Inc., priority 2012, dated 2016)

Tested on: K562 cells
Experiment: MTS cell viability assay (K562 cell line)
Type: cell-based
Conditions: Homo sapiens, 48 hr
Protocol: K562 cells were the first human immortalised myelogenous leukemia line to be established. K562 cells are of the erythroleukemia type, and the line is derived from a CML patient. The cells are non-adherent and rounded, are positive for the bcr:abl fusion gene.
K562 cell line is maintained in RPMI1640 with 10% fetal Bovine Serum. 2500 cells/well of K562 cells were plated in 96 well tissue culture plate. Cells were incubated for 48 hours with serially diluted compound (final concentration from 20 μM-0.002 μM) for 48 hr. MTS (3-(4,5-dimethylthiazol-2-yl)-5-(3-carboxymethoxyphenyl)-2-(4-sulfophenyl)-2H-tetrazolium), obtained from Promega was added to the wells and plates were incubated at […] in 5% CO2 for 4 hrs. The MTS compound is bio-reduced by cells into a colored formazan product that is soluble in tissue culture medium. The quantity of formazan product as measured by the amount of 490 nm absorbance is directly proportional to the number of living cells in culture. The absorbance was read at 490 nm (Spectramax microplate reader). The Percentage inhibition was calculated and plotted against the concentration of inhibitor and data was fit to Non Linear Regression curve fit (sigmoidal dose response curve with variable slope-four parameters) using Graph pad prism 5.

Cc1ccc(NC(=O)c2ccc(CN3CC[N+](C)(COC(=O)N[C@H](C)c4ccccc4)CC3)cc2)cc1Nc1nccc(-c2cccnc2)n1 [Compound 1011, (R)-1-methyl-4-(4-((4-methyl-3-((4-(pyridin-3-yl)pyrimidin-2-yl)amino)phenyl)carbamoyl)benzyl)-1-((((1-phenylethyl)carbamoyl)oxy)methyl)piperazin-1-ium iodide]
inhibition at 0.2 µM: 45%
inhibition at 2 µM: 63%
inhibition at 20 µM: 70%

CCC(C)(C)OC(=O)OC[N+]1(C)CCN(Cc2ccc(C(=O)Nc3ccc(C)c(Nc4nccc(-c5cccnc5)n4)c3)cc2)CC1 [Compound 1028, 1-methyl-4-(4-(4-methyl-3-(4-(pyridin-3-yl)pyrimidin-2-ylamino)phenylcarbamoyl)benzyl)-1-((tert-pentyloxycarbonyloxy)methyl)piperazin-1-ium iodide]
inhibition at 0.2 µM: 40%
inhibition at 2 µM: 63%
inhibition at 20 µM: 76%

Cc1ccc(NC(=O)c2ccc(CN3CCN(C)CC3)cc2)cc1Nc1nccc(-c2cccnc2)n1 [imatinib, 4-[(4-methylpiperazin-1-yl)methyl]-N-(4-methyl-3-{[4-(pyridin-3-yl)pyrimidin-2-yl]amino}phenyl)benzamide, reference compound]
inhibition at 0.2 µM: 48%
inhibition at 2 µM: 64%
inhibition at 20 µM: 67%
